Tested on: T1, naringinase
T1 construct: gene naringinase alpha-L-rhamnosidase activity
Test: initial rates of naringin hydrolysis, Davis or DNS method, Lineweaver-Burk
Assay type: biochemical, Penicillium decumbens
Conditions: free enzyme; 0.1 M acetate buffer pH 4.0, 50 °C; naringin 0.5-20 mM; commercial enzyme complex
Excerpt: initial rates of naringin hydrolysis, Davis or DNS method, Lineweaver-Burk on naringinase

C[C@@H]1O[C@@H](O[C@H]2[C@H](Oc3cc(O)c4c(c3)O[C@H](c3ccc(O)cc3)CC4=O)O[C@H](CO)[C@@H](O)[C@@H]2O)[C@H](O)[C@H](O)[C@H]1O [naringin]
Km: 2560 µM
